Experimental data taken from ChEMBL document CHEMBL1143793, “Solid-phase synthesis of Stat3 inhibitors incorporating O-carbamoylserine and O-carbamoylthreonine as glutamine mimics” (Bioorg Med Chem Lett, 2007).

Molecular target: Signal transducer and activator of transcription 3 (Homo sapiens, UniProt P40763)
Experiment: Inhibition of Stat3

Sequence of Signal transducer and activator of transcription 3 (P40763 whole entry): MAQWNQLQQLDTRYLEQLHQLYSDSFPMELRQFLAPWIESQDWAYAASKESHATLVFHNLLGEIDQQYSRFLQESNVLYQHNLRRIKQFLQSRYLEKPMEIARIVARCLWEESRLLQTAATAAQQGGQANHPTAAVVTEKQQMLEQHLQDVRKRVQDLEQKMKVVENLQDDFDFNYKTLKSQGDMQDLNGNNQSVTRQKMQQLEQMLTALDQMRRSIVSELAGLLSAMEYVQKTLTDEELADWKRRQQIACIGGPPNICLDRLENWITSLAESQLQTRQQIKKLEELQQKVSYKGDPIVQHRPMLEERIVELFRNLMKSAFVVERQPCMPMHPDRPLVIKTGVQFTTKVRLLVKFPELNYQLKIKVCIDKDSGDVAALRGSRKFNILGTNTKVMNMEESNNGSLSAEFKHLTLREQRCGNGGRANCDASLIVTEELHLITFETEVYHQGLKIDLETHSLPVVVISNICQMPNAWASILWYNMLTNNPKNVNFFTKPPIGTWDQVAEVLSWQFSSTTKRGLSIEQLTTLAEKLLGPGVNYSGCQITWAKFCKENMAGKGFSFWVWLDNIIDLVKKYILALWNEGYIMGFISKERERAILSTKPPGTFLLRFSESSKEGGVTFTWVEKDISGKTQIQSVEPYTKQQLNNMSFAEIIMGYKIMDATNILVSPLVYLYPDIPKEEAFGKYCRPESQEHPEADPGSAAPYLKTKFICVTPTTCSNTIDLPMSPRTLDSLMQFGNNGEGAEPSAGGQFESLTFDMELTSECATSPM

Row | IC50 [nM] | Compound
1 | 850 | CC(C)C[C@H](NC(=O)/C=C/c1ccc(OP(=O)(O)O)cc1)C(=O)N1CCC[C@H]1C(=O)N[C@H](C(=O)NCc1ccccc1)[C@@H](C)OC(N)=O
2 | 379 | CC(C)C[C@H](NC(=O)/C=C/c1ccc(OP(=O)(O)O)cc1)C(=O)N1CCC[C@H]1C(=O)N[C@@H](COC(N)=O)C(=O)NCc1ccccc1

Row | Compound | IC50 [nM]
3 | CC(C)C[C@H](NC(=O)/C=C/c1ccc(OP(=O)(O)O)cc1)C(=O)N1CCC[C@H]1C(=O)N[C@@H](CCC(N)=O)C(=O)NCc1ccccc1 | 135
